Laboratory results as given in US6989378B2, “Testosterone derivative” (Akzo Nobel N.V., priority 1998, dated 2006).
≈ marks a conversion by molar mass, not a printed value. Read-outs that look alike come from different tables or passages of the source.

Assays:
[1] = Solubility in oil solvent (amount of compound dissolved per ml of solvent); type: physicochemical; settings: for solubility at 15 min: oil or lipid, thermodynamic from solid, dissolved by heating in waterbath of 50° C. and Vortex shaking 15 minutes
Method: About 20–30 mgs of compound were powdered and then dissolved in as little solvent as necessary to dissolve all the visible particles. Dissolution was accomplished by heating in a waterbath of 50° C. and shaking on a Vortex™ shaker for 15 minutes. The solubility was calculated by determining the amount of compound (in mg) dissolved per ml of solvent.

rats = settings: anabolic and antigonadotropic effects; cited from earlier work
monkeys = settings: anabolic and antigonadotropic effects; cited from earlier work
[2] = arachis oil, read-out: solubility arachis oil
[3] = oleic acid, read-out: solubility oleic acid

Row | SMILES | solubility in arachis oil compared with the other androgens ([1]; arachis oil, comparison in words) | solubility at 15 min [1, 2] | solubility at 15 min [1, 3] | solubility in oleic acid compared with the known androgens ([1]; oleic acid, comparison in words) | androgenic potency relative to testosterone (rats) | androgenic potency relative to testosterone (monkeys)
1 | CCCCCCCCCCC(=O)O[C@H]1CC[C@H]2[C@H]3[C@H](CC[C@]12C)[C@H]1CCC(=O)C=C1C[C@H]3C [MENT undecanoate, (7α,17β)-7-methyl-17-[(1-oxoundecyl)oxy]estr-4-en-3-one] | much better than that of any of the other androgens | > 200 mg/mL | ≥ 500 mg/mL | better than expected | – | –
2 | C[C@@H]1CC2=CC(=O)CC[C@@H]2[C@H]2CC[C@]3(C)[C@@H](O)CC[C@H]3[C@@H]21 [MENT, (7α,17β)-17-hydroxy-7-methylestr-4-en-3-one] | – | ≤ 0.1 mg/mL | ~15 mg/mL (≈ 52 mM) | – | ten times more potent than testosterone | ten times more potent than testosterone
3 | CCCCCCCCCCC(=O)O[C@H]1CC[C@H]2[C@@H]3CCC4=CC(=O)CC[C@]4(C)[C@H]3CC[C@]12C [testosterone undecanoate, (17β)-17-[(1-Oxoundecyl)oxy]androst-4-en-3-one] | – | ~45 mg/mL (≈ 98.5 mM) | 200 to 250 mg/mL (≈ 438 to 547 mM) | – | – | –
4 | C[C@]12CC[C@H]3[C@@H](CCC4=CC(=O)CC[C@@]43C)[C@@H]1CC[C@@H]2O [testosterone] | – | < 0.1 mg/mL | ~25 mg/mL (≈ 86.7 mM) | – | – | –
